The values that follow come from article PMC11013038, “Design, Synthesis, and Evaluation of B-(Trifluoromethyl)phenyl Phosphine–Borane Derivatives as Novel Progesterone Receptor Antagonists” (Molecules, 2024).

In assay [1] the target is T1, androgen receptor (AR) (Mus musculus, UniProt P19091).
T1 construct: SC-3 cells were cultured in MEMα (Fujifilm Wako Co.) supplemented with 2 %; endogenous in cells; host or cells: SC-3
T1 sequence (P19091 1-899): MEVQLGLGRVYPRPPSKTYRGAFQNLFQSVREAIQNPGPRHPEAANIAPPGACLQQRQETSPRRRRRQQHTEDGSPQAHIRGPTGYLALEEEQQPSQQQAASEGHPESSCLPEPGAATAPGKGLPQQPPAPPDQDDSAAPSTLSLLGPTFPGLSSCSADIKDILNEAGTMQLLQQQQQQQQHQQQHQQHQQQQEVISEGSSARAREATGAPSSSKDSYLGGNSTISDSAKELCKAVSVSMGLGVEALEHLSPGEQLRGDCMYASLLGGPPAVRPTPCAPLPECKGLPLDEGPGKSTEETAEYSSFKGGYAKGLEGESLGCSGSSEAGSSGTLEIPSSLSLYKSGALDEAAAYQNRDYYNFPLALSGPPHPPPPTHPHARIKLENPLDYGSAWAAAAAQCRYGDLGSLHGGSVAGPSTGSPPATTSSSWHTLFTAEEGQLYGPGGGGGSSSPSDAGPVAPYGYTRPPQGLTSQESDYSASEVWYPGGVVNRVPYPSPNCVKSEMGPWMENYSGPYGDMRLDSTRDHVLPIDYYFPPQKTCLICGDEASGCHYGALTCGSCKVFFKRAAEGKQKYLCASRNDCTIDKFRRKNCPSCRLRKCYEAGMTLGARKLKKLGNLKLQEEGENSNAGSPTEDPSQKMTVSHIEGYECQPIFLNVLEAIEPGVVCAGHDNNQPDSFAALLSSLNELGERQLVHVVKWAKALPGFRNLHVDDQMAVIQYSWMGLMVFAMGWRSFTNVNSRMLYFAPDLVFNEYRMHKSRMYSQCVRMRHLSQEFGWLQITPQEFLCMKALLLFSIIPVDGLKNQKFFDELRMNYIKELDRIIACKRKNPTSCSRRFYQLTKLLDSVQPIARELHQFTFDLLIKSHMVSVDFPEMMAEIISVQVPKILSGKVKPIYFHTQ
Nature of the assay: SC-3 cell proliferation assay, AR agonistic activity (compound alone). Conditions: for EC50: SC-3 cells, induction of cell proliferation by single treatment of the compound, 0.01 μM to 10 μM, read-out: EC50 (agonist); for effect on SC-3 cell growth in the absence of dihydrotestosterone (AR agonistic activity): androgen-dependent SC-3 cells. It counts as cell-based, murine.

In assay [2] the target is T1, androgen receptor (AR). Nature of the assay: SC-3 cell proliferation assay, AR antagonistic activity (1 nM DHT-promoted proliferation). As to conditions: for effect on SC-3 cell growth in the presence of dihydrotestosterone (AR antagonistic activity): androgen-dependent SC-3 cells; for IC50: read-out: IC50 (antagonist). It counts as cell-based, murine.
The target in assay [3] is T2, PR ligand-binding domain (LBD) (Homo sapiens, UniProt P06401).
T2 construct: purchased Invitrogen A15905
T2 sequence (P06401 679-913 limits assumed): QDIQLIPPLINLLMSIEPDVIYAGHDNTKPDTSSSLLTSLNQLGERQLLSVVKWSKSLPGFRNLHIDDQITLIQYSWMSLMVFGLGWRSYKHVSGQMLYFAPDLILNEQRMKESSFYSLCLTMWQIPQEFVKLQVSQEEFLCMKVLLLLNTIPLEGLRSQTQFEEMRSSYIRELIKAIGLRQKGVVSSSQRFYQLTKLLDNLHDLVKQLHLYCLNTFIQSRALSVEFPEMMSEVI
In words: PR LBD competitive binding assay (fluorescence polarization, PolarScreen kit). Conditions: fluorescence polarization competition, 100 nM to 32 μM, Figure 5. As for the experimental part:
The PR agonistic and antagonistic activities of the synthesized phosphine–borane derivatives were evaluated using an alkaline phosphatase assay with the T47D human breast cancer cell line. […] The basal alkaline phosphatase activity was also not affected by the tested compounds alone. […] The PR antagonistic activities of the compounds were assessed in the presence of 1 nM of P4 (5). We also calculated the molecular volume of each compound to investigate the structure–activity relationship (SAR). Table 2 summarizes the PR antagonistic activity and calculated volumes of the synthesized compounds. […] We investigated the binding affinity of the compounds toward the PR ligand-binding domain (LBD) using a fluorescence polarization assay system. […] We also investigated the activity of compounds 28 and 34 toward the androgen receptor (AR) by means of cell-proliferation promoting/inhibitory activity toward androgen-dependent SC-3 cells. […].
PR binding affinity was assessed using a PolarScreen Progesterone Receptor Competitor Assay Kit, Green (Invitrogen, Waltham, MA, USA, A15905) based on the manufacturer’s instruction. […] The fluorescence polarization value (mP) was measured at 485 nm/535 nm (excitation/emission) on a DTX 880 Multimode Detector (Beckman Coulter).

For orientation: EC50 means the concentration giving half of the maximal effect. For orientation: IC50 means the concentration at which inhibition is half-maximal. On to `C[P+](C)(C)[BH2-]c1ccc(C(F)(F)F)cc1` [Compound 28, B-4-(Trifluoromethyl)phenyl Trimethylphosphine–Borane], for which, at androgen receptor (AR) [1], the EC50 was over 10 µM and the “effect on SC-3 cell growth in the absence of dihydrotestosterone (AR agonistic activity)” value is listed as “did not affect cell growth”. Also, on androgen receptor (AR) [2], the “effect on SC-3 cell growth in the presence of dihydrotestosterone (AR antagonistic activity)” value is reported as “did not affect cell growth” and the IC50 is over 10 µM. Besides, the “binding affinity toward PR LBD (in words)” value in assay [3] is reported as “did not show the affinity”.
For `FC(F)(F)c1ccc([BH2-][P+](C2CC2)(C2CC2)C2CC2)cc1` [Compound 34, B-4-(Trifluoromethyl)phenyl Tricyclopropylphosphine–Borane], at androgen receptor (AR) [1], the EC50 is over 10 µM and the “effect on SC-3 cell growth in the absence of dihydrotestosterone (AR agonistic activity)” value is on record as “did not affect cell growth”. Besides, on androgen receptor (AR) [2], the “effect on SC-3 cell growth in the presence of dihydrotestosterone (AR antagonistic activity)” value was “did not affect cell growth” and the IC50 is over 10 µM. Further, the “binding affinity toward PR LBD (in words)” value in assay [3] is listed as “exhibited significant affinity toward PR LBD”.
